Measured values: patent US12486274B2, “Substituted pyrazolo-pyrimidines and uses thereof” (Verge Analytics, Inc., priority 2020, dated 2025)
Where a name gives a salt, the structure may show the parent alone.

Target: Full length human recombinant PIKFYVE (Homo sapiens (Human), UniProt Q9Y2I7)
Assay: Inhibition of PIKfyve (microfluidic electrophoresis kinase assay)
Type: biochemical
Settings: 2 nM enzyme, PI3P/PS substrate, 3 h at room temperature, 12 concentrations
Method: Full length human recombinant PIKFYVE expressed in baculovirus expression system as N-terminal GST-fusion protein (265 kDa) was obtained from Carna Biosciences (Kobe, Japan). The kinase substrate was prepared by mixing and sonicating fluorescently-labeled phosphatidylinositol 3-phosphate (PI3P) with phospho-L-serine (PS) at a 1:10 ratio in 50 mM HEPES buffer pH7.5.
The kinase reactions were assembled in 384-well plates (Greiner) in a total volume of […] as follows. Kinase protein was pre-diluted in an assay buffer comprising 25 mM HEPES, pH 7.5, 1 mM DTT, 2.5 mM MgCl2, and 2.5 mM MnCl2, and 0.005% Triton X-100, and dispensed into a 384-well plate (10 μL per well). Test compounds were serially pre-diluted in DMSO and added to the protein samples by acoustic dispensing (Labcyte Echo). The concentration of DMSO was equalized to 1% in all samples. All test compounds were tested at 12 concentrations. Apilimod was used as a reference compound and was tested in identical manner in each assay plate. Control samples (0%-inhibition, in the absence of inhibitor, DMSO only) and 100%-inhibition (in the absence of enzyme) were assembled in replicates of four and were used to calculate %-inhibition in the presence of compounds. The reactions were initiated by addition of 10 μL of 2× PI3P/PS substrate supplemented with ATP. The final concentration of enzyme was 2 nM, the final concentration of ATP was 10 mM, and the final concentration of PI3P/PS substrate was 1 μM (PI3P). The kinase reactions were allowed to proceed for 3 h at room temperature. Following incubation, the reactions were quenched by addition of […] of termination buffer (100 mM HEPES, pH 7.5, 0.01% Triton X-100, 20 mM EDTA). Terminated plates were analyzed on a microfluidic electrophoresis instrument (Caliper LabChip® 3000, Caliper Life Sciences/Perkin Elmer). The change in the relative fluorescence intensity of the PI (3) P substrate and PI (3,5) P product peaks was measured. The activity in each test sample was determined as the product to sum ratio (PSR): P/(S+P), where P is the peak height of the product, and S is the peak height of the substrate. Percent inhibition (Pinh) was determined using the following equation: Pinh=(PSR0% inh−PSRcompound)/(PSR0% inh−PSR100% inh)*100 in which PSRcompound is the product/sum ratio in the presence of compound, PSR0% inh is the product/sum ratio in the absence of compound, and the PSR100% inh is the product/sum ratio in the absence of the enzyme.

Sequence of Full length human recombinant PIKFYVE (Q9Y2I7 whole entry): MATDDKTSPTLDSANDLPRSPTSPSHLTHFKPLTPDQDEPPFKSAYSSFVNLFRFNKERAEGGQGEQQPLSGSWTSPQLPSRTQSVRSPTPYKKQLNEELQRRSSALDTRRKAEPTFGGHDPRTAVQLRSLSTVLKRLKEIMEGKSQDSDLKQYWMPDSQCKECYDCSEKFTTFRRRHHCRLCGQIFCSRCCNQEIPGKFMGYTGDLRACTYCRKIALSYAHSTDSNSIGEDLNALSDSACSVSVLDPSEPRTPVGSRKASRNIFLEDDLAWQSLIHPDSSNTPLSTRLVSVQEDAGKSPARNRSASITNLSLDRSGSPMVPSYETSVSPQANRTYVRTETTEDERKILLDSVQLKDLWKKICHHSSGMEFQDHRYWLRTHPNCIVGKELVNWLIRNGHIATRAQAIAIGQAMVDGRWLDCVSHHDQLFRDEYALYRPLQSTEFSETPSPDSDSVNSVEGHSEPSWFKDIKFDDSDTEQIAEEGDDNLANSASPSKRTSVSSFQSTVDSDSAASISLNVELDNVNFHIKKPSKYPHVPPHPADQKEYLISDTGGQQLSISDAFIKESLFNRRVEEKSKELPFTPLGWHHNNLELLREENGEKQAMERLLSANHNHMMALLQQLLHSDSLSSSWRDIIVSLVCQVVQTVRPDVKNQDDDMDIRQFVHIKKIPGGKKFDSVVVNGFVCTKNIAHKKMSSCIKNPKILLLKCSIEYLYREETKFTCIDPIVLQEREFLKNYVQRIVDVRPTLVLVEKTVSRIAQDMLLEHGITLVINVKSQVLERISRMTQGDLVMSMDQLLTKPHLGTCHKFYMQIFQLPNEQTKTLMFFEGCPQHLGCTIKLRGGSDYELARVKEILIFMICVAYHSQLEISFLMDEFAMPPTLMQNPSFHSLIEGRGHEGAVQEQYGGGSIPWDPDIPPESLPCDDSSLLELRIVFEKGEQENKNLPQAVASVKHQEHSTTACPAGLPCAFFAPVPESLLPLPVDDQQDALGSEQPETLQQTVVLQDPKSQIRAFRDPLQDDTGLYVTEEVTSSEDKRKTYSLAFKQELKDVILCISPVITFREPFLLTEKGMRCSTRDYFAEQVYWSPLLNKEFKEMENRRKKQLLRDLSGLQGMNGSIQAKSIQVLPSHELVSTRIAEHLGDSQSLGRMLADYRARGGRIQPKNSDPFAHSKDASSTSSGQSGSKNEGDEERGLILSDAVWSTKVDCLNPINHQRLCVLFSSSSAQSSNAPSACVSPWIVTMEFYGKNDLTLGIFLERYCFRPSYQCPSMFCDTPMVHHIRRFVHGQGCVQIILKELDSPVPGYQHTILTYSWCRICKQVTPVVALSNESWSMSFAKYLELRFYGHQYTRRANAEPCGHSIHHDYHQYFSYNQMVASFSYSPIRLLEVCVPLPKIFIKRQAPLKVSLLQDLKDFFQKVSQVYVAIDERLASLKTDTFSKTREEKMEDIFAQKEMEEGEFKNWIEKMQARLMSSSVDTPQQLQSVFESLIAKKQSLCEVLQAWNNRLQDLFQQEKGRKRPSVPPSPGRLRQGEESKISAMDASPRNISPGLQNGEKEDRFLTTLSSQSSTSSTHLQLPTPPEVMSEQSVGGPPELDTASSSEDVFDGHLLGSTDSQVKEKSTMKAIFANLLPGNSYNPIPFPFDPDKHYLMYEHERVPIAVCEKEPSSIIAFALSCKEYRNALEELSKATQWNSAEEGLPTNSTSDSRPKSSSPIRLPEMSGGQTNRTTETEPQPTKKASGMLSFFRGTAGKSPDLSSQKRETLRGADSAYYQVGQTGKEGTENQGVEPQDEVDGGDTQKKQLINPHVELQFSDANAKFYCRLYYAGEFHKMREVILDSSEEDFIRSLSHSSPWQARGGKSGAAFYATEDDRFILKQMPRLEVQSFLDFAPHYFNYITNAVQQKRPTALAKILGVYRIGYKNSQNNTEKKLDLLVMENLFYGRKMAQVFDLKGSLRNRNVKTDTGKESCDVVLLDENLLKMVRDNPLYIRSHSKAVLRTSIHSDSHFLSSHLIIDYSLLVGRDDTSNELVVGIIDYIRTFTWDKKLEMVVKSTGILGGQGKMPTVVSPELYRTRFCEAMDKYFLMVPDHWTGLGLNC

SMILES	IC50
Cc1cnn(-c2cc(N3CCOCC3)n3nc(-c4ccncc4)cc3n2)c1 [Example 12, 4-[5-(4-methylpyrazol-1-yl)-2-(4-pyridyl)pyrazolo[1,5-a]pyrimidin-7-yl]morpholine]	> 10000 nM
Nc1ncccc1-c1cc2nc(-n3ccc(-c4ccccc4)n3)cc(N3CCOCC3)n2n1 [Compound 70, 3-[7-morpholino-5-(3-phenylpyrazol-1-yl)pyrazolo[1,5-a]pyrimidin-2-yl]pyridin-2-amine]	378 nM
Cc1cncc(-c2ccn(-c3cc(N4CCOCC4)n4nc(-c5cccnc5)cc4n3)n2)c1 [Compound 102, 4-[5-[3-(5-methyl-3-pyridyl)pyrazol-1-yl]-2-(3-pyridyl)pyrazolo[1,5-a]pyrimidin-7-yl]morpholine]	> 10000 nM
Cc1cc(Nc2cc(N3CCOCC3)n3nc(-c4ccncc4)cc3n2)n[nH]1 [Example 5, N-(5-methyl-1H-pyrazol-3-yl)-7-morpholino-2-(4-pyridyl)pyrazolo[1,5-a]pyrimidin-5-amine]	> 10000 nM
Cc1cc(-c2ccn(-c3cc(N4CCOCC4)n4nc(-c5cccnc5)cc4n3)n2)ccn1 [Compound 103, 4-[5-[3-(2-methyl-4-pyridyl)pyrazol-1-yl]-2-(3-pyridyl)pyrazolo[1,5-a]pyrimidin-7-yl]morpholine]	> 10000 nM
c1ccc(-c2ccn(-c3cc(N4CCOCC4)n4nc(-c5ccncn5)cc4n3)n2)cc1 [Compound 68, 4-[5-(3-phenylpyrazol-1-yl)-2-pyrimidin-4-yl-pyrazolo[1,5-a]pyrimidin-7-yl]morpholine]	1660 nM
Nc1cccc(-c2cc3nc(-n4ccc(-c5ccccc5)n4)cc(N4CCOCC4)n3n2)n1 [Compound 109, 6-[7-morpholino-5-(3-phenylpyrazol-1-yl)pyrazolo[1,5-a]pyrimidin-2-yl]pyridin-2-amine]	278 nM
O=C(NC1CCCC1)c1cc2nc(-n3ccc(-c4ccccc4)n3)cc(N3CCOCC3)n2n1 [Compound 77, N-cyclopentyl-7-morpholino-5-(3-phenylpyrazol-1-yl)pyrazolo[1,5-a]pyrimidine-2-carboxamide]	184 nM
Cc1ccc(-c2cc(Nc3cc(N4CCOCC4)n4nc(-c5ccncc5)cc4n3)[nH]n2)cc1 [Example 1, 7-morpholino-2-(pyridin-4-yl)-N-(3-(p-tolyl)-1H-pyrazol-5-yl)pyrazolo[1,5-a]pyrimidin-5-amine, hydrogen chloride salt]	2590 nM
Cc1cccc(-c2ccn(-c3cc(N4CCOCC4)n4nc(C(=O)N5CCCCC5)cc4n3)n2)c1 [Example 30, (7-morpholino-5-(3-(m-tolyl)-1H-pyrazol-1-yl)pyrazolo[1,5-a]pyrimidin-2-yl)(piperidin-1-yl)methanone]	247 nM
Cc1cccc(-c2ccn(-c3cc(N4CCOCC4)n4nc(C(=O)N5CCN(C)CC5)cc4n3)n2)c1 [Example 32, (4-methylpiperazin-1-yl) (7-morpholino-5-(3-(m-tolyl)-1H-pyrazol-1-yl)pyrazolo[1,5-a]pyrimidin-2-yl)methanone]	254 nM
COC(=O)NCc1cc2nc(-n3ccc(-c4ccccc4)n3)cc(N3CCOCC3)n2n1 [Compound 89, methyl N-[[7-morpholino-5-(3-phenylpyrazol-1-yl)pyrazolo[1,5-a]pyrimidin-2-yl]methyl]carbamate]	1400 nM
c1ccc(-c2cnn(-c3cc(N4CCOCC4)n4nc(-c5ccncc5)cc4n3)c2)cc1 [Example 9, 4-[5-(4-phenylpyrazol-1-yl)-2-(4-pyridyl)pyrazolo[1,5-a]pyrimidin-7-yl]morpholine]	> 10000 nM
c1ccc(-c2ccn(-c3cc(N4CCOCC4)n4nc(-c5cnccn5)cc4n3)n2)cc1 [Compound 82, 4-[5-(3-phenylpyrazol-1-yl)-2-pyrazin-2-yl-pyrazolo[1,5-a]pyrimidin-7-yl]morpholine]	169 nM
c1ccc(-c2cnn(-c3cc(N4CCOCC4)n4nc(-c5cccnc5)cc4n3)c2)cc1 [Compound 79, 4-[5-(4-phenylpyrazol-1-yl)-2-(3-pyridyl)pyrazolo[1,5-a]pyrimidin-7-yl]morpholine]	333 nM
Cc1cc(-c2cc3nc(-n4ccc(-c5ccccn5)n4)cc(N4CCOCC4)n3n2)nn1CCN(C)C [Compound 92, N,N-dimethyl-2-[5-methyl-3-[7-morpholino-5-[3-(2-pyridyl)pyrazol-1-yl]pyrazolo[1,5-a]pyrimidin-2-yl]pyrazol-1-yl]ethanamine]	5240 nM
C[C@H](NC(=O)c1cc2nc(-n3ccc(-c4ccccc4)n3)cc(N3CCOCC3)n2n1)C1CC1 [Compound 75, N-[(1S)-1-cyclopropylethyl]-7-morpholino-5-(3-phenylpyrazol-1-yl)pyrazolo[1,5-a]pyrimidine-2-carboxamide]	334 nM

Compounds with a lower IC50, results first:

IC50	SMILES
162 nM	Cc1cccc(-c2ccn(-c3cc(N4CCOCC4)n4nc(C(=O)N(C)C5CC5)cc4n3)n2)c1 [Example 26, N-cyclopropyl-N-methyl-7-morpholino-5-(3-(m-tolyl)-1H-pyrazol-1-yl)pyrazolo[1,5-a]pyrimidine-2-carboxamide]
143 nM	Nc1ncc(-c2cc3nc(-n4ccc(-c5ccccc5)n4)cc(N4CCOCC4)n3n2)cn1 [Compound 71, 5-[7-morpholino-5-(3-phenylpyrazol-1-yl)pyrazolo[1,5-a]pyrimidin-2-yl]pyrimidin-2-amine]
126 nM	Cc1cc(-c2cc3nc(-n4ccc(-c5cccc(Cl)c5)n4)cc(N4CCOCC4)n3n2)nn1CCN(C)C [Compound 97, 2-[3-[5-[3-(3-chlorophenyl)pyrazol-1-yl]-7-morpholino-pyrazolo[1,5-a]pyrimidin-2-yl]-5-methyl-pyrazol-1-yl]-N,N-dimethyl-ethanamine]
106 nM	Nc1nccc(-c2cc3nc(-n4ccc(-c5ccccc5)n4)cc(N4CCOCC4)n3n2)n1 [Compound 104, 4-[7-morpholino-5-(3-phenylpyrazol-1-yl)pyrazolo[1,5-a]pyrimidin-2-yl]pyrimidin-2-amine]
99.6 nM	COCC(COC)NC(=O)c1cc2nc(-n3ccc(-c4cccc(C)c4)n3)cc(N3CCOCC3)n2n1 [Example 39, N-(1,3-dimethoxypropan-2-yl)-7-morpholino-5-(3-(m-tolyl)-1H-pyrazol-1-yl)pyrazolo[1,5-a]pyrimidine-2-carboxamide]
80.9 nM	c1ccc(-c2ccn(-c3cc(N4CCOCC4)n4nc(-c5cn[nH]c5)cc4n3)n2)cc1 [Compound 116, 4-[5-(3-phenylpyrazol-1-yl)-2-(1H-pyrazol-4-yl)pyrazolo[1,5-a]pyrimidin-7-yl]morpholine]
79 nM	Cc1cccc(-c2ccn(-c3cc(N4CCOCC4)n4nc(C(=O)NCC5(CO)COC5)cc4n3)n2)c1 [Example 44, N-((3-(hydroxymethyl)oxetan-3-yl)methyl)-7-morpholino-5-(3-(m-tolyl)-1H-pyrazol-1-yl)pyrazolo[1,5-a]pyrimidine-2-carboxamide]
73.7 nM	Cc1cccc(-c2ccn(-c3cc(N4CCOCC4)n4nc(C(=O)NCC5CC5)cc4n3)n2)c1 [Example 27, N-(cyclopropylmethyl)-7-morpholino-5-(3-(m-tolyl)-1H-pyrazol-1-yl)pyrazolo[1,5-a]pyrimidine-2-carboxamide]
41 nM	Cn1ccc(-c2cc3nc(-n4ccc(-c5cccc(Cl)c5)n4)cc(N4CCOCC4)n3n2)n1 [Compound 101, 4-[5-[3-(3-chlorophenyl)pyrazol-1-yl]-2-(1-methylpyrazol-3-yl)pyrazolo[1,5-a]pyrimidin-7-yl]morpholine]
26.8 nM	Cc1cccc(-c2ccn(-c3cc(N4CCOCC4)n4nc(C(=O)N[C@H]5CCCN(C)C5)cc4n3)n2)c1 [Compound 53, N-[(3S)-1-methyl-3-piperidyl]-7-morpholino-5-[3-(m-tolyl)pyrazol-1-yl]pyrazolo[1,5-a]pyrimidine-2-carboxamide]
8.4 nM	COc1cccc(-c2ccn(-c3cc(N4CCOCC4)n4nc(-c5cc(C)n(CCN(C)C)n5)cc4n3)n2)c1 [Compound 100, 2-[3-[5-[3-(3-methoxyphenyl)pyrazol-1-yl]-7-morpholino-pyrazolo[1,5-a]pyrimidin-2-yl]-5-methyl-pyrazol-1-yl]-N,N-dimethyl-ethanamine]
7.1 nM	COc1cccc(-c2ccn(-c3cc(N4CCOCC4)n4nc(-c5cccnc5)cc4n3)n2)c1 [Compound 107, 4-[5-[3-(3-methoxyphenyl)pyrazol-1-yl]-2-(3-pyridyl)pyrazolo[1,5-a]pyrimidin-7-yl]morpholine]
2.7 nM	Cc1cccc(-c2ccn(-c3cc(N4CCOCC4)n4nc(-c5nccs5)cc4n3)n2)c1 [Compound 111, 4-[5-[3-(m-tolyl)pyrazol-1-yl]-2-thiazol-2-yl-pyrazolo[1,5-a]pyrimidin-7-yl]morpholine]
